# Assays:
# rhBMP-2 dimers = target: T1, rhBMP-2 dimers (Homo sapiens, UniProt P12643); assay: solubilization of rhBMP-2 pellets in phosphate buffered saline with pyrrolidones; details: 2 h in phosphate buffered saline with increasing amounts of pyrrolidone
# T1 sequence (P12643 283-396): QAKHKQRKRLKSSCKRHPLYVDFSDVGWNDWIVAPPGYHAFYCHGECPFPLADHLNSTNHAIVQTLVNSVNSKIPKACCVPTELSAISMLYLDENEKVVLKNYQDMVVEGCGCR
# Method: Two to twenty micrograms of the rhBMP protein was lyophilized in a speed-vac to form a solid rhBMP disc. […] After 2 h the protein in the remaining disc was sedimented (22,000×g, 30 min) and the protein content of 20 μl from the supernatant determined by a slot-blot method (Weber, F. E., et al., 2002, supra).
# MC3T3-E1 cells [1] = assay: mineralization by Alizarin red-S staining; assay type: cell-based; details: 4 weeks, 5 Mm glycerol phosphate and 1 μg/ml rhBMP-2, 2.5 Mm NMP vs no NMP
# Method: Alizarin red-S staining was performed after 4 weeks according to Bodine, P. V. N., et al. [J Bone Mineral Res 11 (1996) 806–819].
# MC3T3-E1 cells [2] = assay: alkaline phosphatase activity as marker of maturation of preosteoblastic cell line; assay type: cell-based
# Method: (§1) MC3T3-E1 cells were grown in an alpha-modified Minimum Essential Medium (Life Technologies, Inc., Grand Island, N.Y.) containing 10% fetal calf serum (Life Technologies, Inc.), 50 μg/ml gentamycin, and 50 μg/ml ascorbic acid. C3H10T1/2 cells were grown in basal medium Eagle, and 50 μg/ml gentamycin. To examine the action of NMP on both cell lines, 1×10^5 cells per well were plated in 6-well plates and NMP subsequently added. Medium exchange was performed after 3 days and alkaline phosphatase (ALP) was determined according to Lowry, O. et al. [J. Biol. Chem. 207 (1954) 19–37]: p-nitrophenol liberated was converted to p-nitrophenylate by adding 400 μl of 1 M NaOH, which was quantitated by measuring the absorbance at 410 nm (epsilon=17500/molxcm). Alkaline phosphatase activity was normalized to total protein and expressed as nmol nitrophenylate generated per min per mg protein.
# First, to verify the osteoinductive activity of NMP an embryonic, murine, mesenchymal stem cell line C3H10T1/2 and a preosteoblastic cell line MC3T3-E1 were used and cultured as described above. C3H10T1/2 cells can differentiate into cartilage, bone or adipose cells, whereas MC3T3-E1 produces and releases autologous BMP. Alkaline phosphatase activity was used as a marker for the differentiation into the osteoblastic lineage. […]
# C3H10T1/2 cells = assay: alkaline phosphatase activity in mesenchymal stem cell line; assay type: cell-based, murine; details: C3H10T1/2 cells treated with up to 5 mM NMP; data not shown
# Method: as §1
# First, to verify the osteoinductive activity of NMP an embryonic, murine, mesenchymal stem cell line C3H10T1/2 and a preosteoblastic cell line MC3T3-E1 were used and cultured as described above. C3H10T1/2 cells can differentiate into cartilage, bone or adipose cells, whereas MC3T3-E1 produces and releases autologous BMP. Alkaline phosphatase activity was used as a marker for the differentiation into the osteoblastic lineage.
SMILES,"potential to solubilize rhBMP-2, grading in declining order (rhBMP-2 dimers)",mineralisation (alizarin-S-staining) (MC3T3-E1 cells [1]),"maturation determined by alkaline phosphatase activity, concentration dependence (MC3T3-E1 cells [2]; after 6 days, 0 to 5 Mm of NMP)","increase of alkaline phosphatase activity (factor) (MC3T3-E1 cells [2]; low doses of NMP, MC3T3-E1)",alkaline phosphatase activity (C3H10T1/2 cells)
"CN1CCCC1=O [NMP, 1-methyl-2-pyrrolidone]",1-methyl-2-pyrrolidone (NMP)>1-ethyl-2-pyrrolidone (NEP)>2-pyrrolidone (PB)>1-cyclohexyl-2-pyrrolidone (CP),increased mineralisation,increases in a concentration dependent manner,2.5–3.0,not increased
"O=C1CCCN1 [PB, 2-pyrrolidone]",1-methyl-2-pyrrolidone (NMP)>1-ethyl-2-pyrrolidone (NEP)>2-pyrrolidone (PB)>1-cyclohexyl-2-pyrrolidone (CP),–,–,–,–

# From US7074412B2, “Pharmaceutical composition” (The University of Zurich, priority 2003, dated 2006)
